Test results published in ChEMBL document CHEMBL1201862, “PubChem BioAssay data set” (2004).
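Results reflect a 48-hour exposure of cells in 96-well plates to compound at five concentrations. GI50 marks 50% less growth.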 Activity calls are given as the source filed them. No stated cut-off is given here; in the data, active = GI50 up to about 1.1 µM and inactive = higher.

How the values were obtained:
Experiment in all cases: NCI tumour cell line growth inhibition, 48 h
CAKI-1 = tested on: CAKI-1
NCI-H522 = tested on: NCI-H522
SK-OV-3 = tested on: SK-OV-3
M19-MEL = tested on: M19-MEL
OVCAR-3 = tested on: OVCAR-3
SNB-75 = tested on: SNB-75
COLO 205 = tested on: COLO 205
NCI-H460 = tested on: NCI-H460
UACC-257 = tested on: UACC-257
MOLT-4 = tested on: MOLT-4
SF-268 = tested on: SF-268
RPMI-8226 = tested on: RPMI-8226
SW-620 = tested on: SW-620
UO-31 = tested on: UO-31
SK-MEL-28 = tested on: SK-MEL-28
UACC-62 = tested on: UACC-62
HOP-18 = tested on: HOP-18
OVCAR-4 = tested on: OVCAR-4
XF498 = tested on: XF498
786-0 = tested on: 786-0
A498 = tested on: A498
LOX IMVI = tested on: LOX IMVI
SNB-78 = tested on: SNB-78
K562 = tested on: K562
TK-10 = tested on: TK-10
Malme-3M = tested on: Malme-3M
CCRF-CEM = tested on: CCRF-CEM
NCI-H226 = tested on: NCI-H226
KM-20L2 = tested on: KM-20L2
HOP-92 = tested on: HOP-92
SF-295 = tested on: SF-295
A549 = tested on: A549
HCC 2998 = tested on: HCC 2998
NCI-H23 = tested on: NCI-H23
SF-539 = tested on: SF-539
RXF 631 = tested on: RXF 631
HCT-15 = tested on: HCT-15
SN12C = tested on: SN12C
OVCAR-5 = tested on: OVCAR-5
DLD-1 = tested on: DLD-1
U-251 = tested on: U-251
DMS-273 = tested on: DMS-273
SK-MEL-5 = tested on: SK-MEL-5
ACHN = tested on: ACHN
KM12 = tested on: KM12
HL-60 = tested on: HL-60
DMS-114 = tested on: DMS-114
HCT-116 = tested on: HCT-116
IGROV-1 = tested on: IGROV-1
SNB-19 = tested on: SNB-19
EKVX = tested on: EKVX
HT-29 = tested on: HT-29
HOP-62 = tested on: HOP-62
OVCAR-8 = tested on: OVCAR-8
LXFL 529 = tested on: LXFL 529
SK-MEL-2 = tested on: SK-MEL-2
SR = tested on: SR
RXF 393 = tested on: RXF 393

In the case of CN(C)c1[se]nc2c1c(=O)n(C)c(=O)n2C, the GI50 (CAKI-1) is reported as > 100 µM (inactive), the GI50 (NCI-H522) is reported as > 100 µM (inactive) and the GI50 (SK-OV-3) is reported as > 100 µM (inactive). For the same molecule, the GI50 (M19-MEL) was > 100 µM (inactive), the GI50 (OVCAR-3) was > 100 µM (inactive) and the GI50 (SNB-75) was 58.5 µM (inactive). For the same molecule, the GI50 (COLO 205) was > 100 µM (inactive), the GI50 (NCI-H460) was > 100 µM (inactive) and the GI50 (UACC-257) was > 100 µM (inactive). The GI50 (MOLT-4) was > 100 µM (inactive), the GI50 (SF-268) was > 100 µM (inactive) and the GI50 (RPMI-8226) was > 100 µM (inactive). The GI50 (SW-620) was > 100 µM (inactive), the GI50 (UO-31) was > 100 µM (inactive) and the GI50 (SK-MEL-28) was > 100 µM (inactive). For the same molecule, the GI50 (UACC-62) was > 100 µM (inactive), the GI50 (HOP-18) was 19.4 µM (inactive) and the GI50 (OVCAR-4) was > 100 µM (inactive). For the same molecule, the GI50 (XF498) was > 100 µM (inactive), the GI50 (786-0) was > 100 µM (inactive) and the GI50 (A498) was > 100 µM (inactive). The GI50 (LOX IMVI) was > 100 µM (inactive), the GI50 (SNB-78) was > 100 µM (inactive) and the GI50 (K562) was > 100 µM (inactive). The GI50 (TK-10) was > 100 µM (inactive), the GI50 (Malme-3M) was > 100 µM (inactive) and the GI50 (CCRF-CEM) was > 100 µM (inactive). The GI50 (NCI-H226) was > 100 µM (inactive), the GI50 (KM-20L2) was > 100 µM (inactive) and the GI50 (HOP-92) was > 100 µM (inactive). For the same molecule, the GI50 (SF-295) was > 100 µM (inactive), the GI50 (A549) was > 100 µM (inactive) and the GI50 (HCC 2998) was > 100 µM (inactive). For the same molecule, the GI50 (NCI-H23) was > 100 µM (inactive), the GI50 (SF-539) was > 100 µM (inactive) and the GI50 (RXF 631) was > 100 µM (inactive). The GI50 (HCT-15) was over 100 µM, the GI50 (SN12C) was > 100 µM (inactive) and the GI50 (OVCAR-5) was > 100 µM (inactive). For the same molecule, the GI50 (DLD-1) was > 100 µM (inactive), the GI50 (U-251) was > 100 µM (inactive) and the GI50 (DMS-273) was > 100 µM (inactive). The GI50 (SK-MEL-5) was > 100 µM (inactive), the GI50 (ACHN) was > 100 µM (inactive) and the GI50 (KM12) was > 100 µM (inactive). The GI50 (HL-60) was > 100 µM (inactive), the GI50 (DMS-114) was > 100 µM (inactive) and the GI50 (HCT-116) was > 100 µM (inactive). The GI50 (IGROV-1) was > 100 µM (inactive), the GI50 (SNB-19) was > 100 µM (inactive) and the GI50 (EKVX) was > 100 µM (inactive). For the same molecule, the GI50 (HT-29) was > 100 µM (inactive), the GI50 (HOP-62) was > 100 µM (inactive) and the GI50 (OVCAR-8) was > 100 µM (inactive). The GI50 (LXFL 529) was > 100 µM (inactive) and the GI50 (SK-MEL-2) was > 100 µM (inactive).

With CC(=O)C1(O)CCC2(O)C3(O)CC=C4CC(O)CCC4(C)C3CC(OC(=O)c3ccc(O)cc3)C12C.COC1CC(OC2C(C)OC(OC3C(C)OC(OC4CCC5(C)C(=CCC6(O)C5CC(OC(=O)c5ccc(O)cc5)C5(C)C(O)(C(C)=O)CCC65O)C4)CC3OC)CC2OC)OC(C)C1O (stereo not given) the GI50 (SK-OV-3) was 36.7 µM (inactive), the GI50 (M19-MEL) was 35.5 µM (inactive) and the GI50 (OVCAR-3) was 20.3 µM (inactive). For the same molecule, the GI50 (SNB-75) was 76.4 µM (inactive), the GI50 (COLO 205) was 26.9 µM (inactive) and the GI50 (NCI-H460) was 34.2 µM (inactive). The GI50 (UACC-257) was 23.4 µM (inactive), the GI50 (MOLT-4) was 30.5 µM (inactive) and the GI50 (SF-268) was 30.6 µM (inactive). For the same molecule, the GI50 (RPMI-8226) was 27.5 µM (inactive), the GI50 (SW-620) was 42.1 µM (inactive) and the GI50 (UO-31) was 18.3 µM (inactive). For the same molecule, the GI50 (SK-MEL-28) was 29 µM (inactive), the GI50 (UACC-62) was 23.4 µM (inactive) and the GI50 (HOP-18) was 38.7 µM (inactive). For the same molecule, the GI50 (XF498) was 2.03 µM (inactive), the GI50 (786-0) was 23.7 µM (inactive) and the GI50 (LOX IMVI) was 20.5 µM (inactive). For the same molecule, the GI50 (SNB-78) was 20.6 µM (inactive), the GI50 (TK-10) was 60.8 µM (inactive) and the GI50 (Malme-3M) was 25.1 µM (inactive). For the same molecule, the GI50 (CCRF-CEM) was 32.4 µM (inactive), the GI50 (NCI-H226) was 34.4 µM (inactive) and the GI50 (HOP-92) was 21.1 µM (inactive). The GI50 (SF-295) was 36 µM (inactive), the GI50 (A549) was 30.5 µM (inactive) and the GI50 (SR) was 25.8 µM (inactive). The GI50 (HCC 2998) was 26.9 µM (inactive), the GI50 (NCI-H23) was 28.9 µM (inactive) and the GI50 (SF-539) was 24.5 µM (inactive). For the same molecule, the GI50 (RXF 631) was 76 µM (inactive), the GI50 (HCT-15) was 33.6 µM and the GI50 (SN12C) was 31.3 µM (inactive). For the same molecule, the GI50 (OVCAR-5) was 87.5 µM (inactive), the GI50 (DLD-1) was 36.6 µM (inactive) and the GI50 (U-251) was 22.5 µM (inactive). The GI50 (DMS-273) was 36.2 µM (inactive), the GI50 (ACHN) was 30.1 µM (inactive) and the GI50 (HL-60) was 20.7 µM (inactive). The GI50 (HCT-116) was 10 µM (inactive), the GI50 (IGROV-1) was 34.2 µM (inactive) and the GI50 (SNB-19) was 33.6 µM (inactive). The GI50 (RXF 393) was 44.4 µM (inactive), the GI50 (EKVX) was 35.4 µM (inactive) and the GI50 (HT-29) was 31.4 µM (inactive). The GI50 (HOP-62) was 31.6 µM (inactive), the GI50 (OVCAR-8) was 29.9 µM (inactive) and the GI50 (LXFL 529) was 24.9 µM (inactive). For the same molecule, the GI50 (SK-MEL-2) was 20.4 µM (inactive).
